From ChEMBL document CHEMBL5223111, “Total synthesis and antibacterial evaluation of Empetroxepins A and B and related analogs” (2022)
In brackets after ≈: the same amount, converted by molar mass.

What was measured:
Assay type in all cases: functional
Staphylococcus aureus = assay: Antibacterial activity against Staphylococcus aureus assessed as reduction in pathogen growth
Escherichia coli = assay: Antibacterial activity against Escherichia coli assessed as reduction in pathogen growth
Bacillus subtilis = assay: Antibacterial activity against Bacillus subtilis assessed as reduction in pathogen growth

Structure (SMILES)	MIC (Staphylococcus aureus) [µg/mL]	MIC (Escherichia coli) [µg/mL]	MIC (Bacillus subtilis) [µg/mL]
COc1cc2c(c(O)c1OC)Oc1ccccc1CC2	> 256	> 256	256 (≈ 940 µM)
COc1c(O)cc2c(c1OC)Oc1ccccc1CC2	256 (≈ 940 µM)	> 256	256 (≈ 940 µM)
COc1cc2c(c(OC)c1OC)Oc1ccc(NCc3ccccc3)cc1CC2	> 256	> 256	> 256
COc1cc2c(c(OC)c1OC)Oc1ccc(Nc3ccccc3)cc1CC2	> 256	> 256	> 256
Oc1cc2c(c(O)c1O)Oc1ccc(Cl)cc1CC2	64 (≈ 230 µM)	> 256	128 (≈ 459 µM)
COC(=O)c1ccccc1-c1ccc2c(c1)CCc1cc(OC)c(OC)c(OC)c1O2	> 256	> 256	> 256
COc1cc2c(c(OC)c1OC)Oc1ccc(Cl)cc1CC2	> 256	> 256	> 256
COc1ccc(-c2ccc3c(c2)CCc2cc(OC)c(OC)c(OC)c2O3)cc1	> 256	> 256	> 256
COc1c(O)cc2c(c1O)Oc1ccc(-c3ccccc3)cc1CC2	16 (≈ 47.9 µM)	> 256	16 (≈ 47.9 µM)
COc1cc2c(c(OC)c1OC)Oc1c(Cl)cccc1CC2	> 256	> 256	> 256
COc1cc2c(c(OC)c1OC)Oc1cccc(Cl)c1CC2	> 256	> 256	> 256
COc1c(O)cc2c(c1OC)Oc1ccc(Br)cc1CC2	16 (≈ 45.6 µM)	> 256	16 (≈ 45.6 µM)
COc1cc2c(c(OC)c1OC)Oc1ccc(N3CCOCC3)cc1CC2	> 256	> 256	> 256
COc1cc2c(c(OC)c1OC)Oc1ccc(-c3ccccc3)cc1CC2	> 256	> 256	> 256
COc1cc2c(c(OC)c1OC)Oc1ccc(N3CCCCC3)cc1CC2	> 256	> 256	> 256
Oc1cc2c(c(O)c1O)Oc1ccccc1CC2	64 (≈ 262 µM)	> 256	128 (≈ 524 µM)
COc1c(O)cc2c(c1O)Oc1ccc(NCc3ccccc3)cc1CC2	64 (≈ 176 µM)	> 256	64 (≈ 176 µM)
Oc1cc2c(c(O)c1O)Oc1cccc(Cl)c1CC2	8 (≈ 28.7 µM)	256 (≈ 919 µM)	16 (≈ 57.4 µM)
COc1ccc2c(c1)CCc1cc(O)c(OC)c(O)c1O2	128 (≈ 444 µM)	> 256	128 (≈ 444 µM)

Structure (SMILES)	MIC (Staphylococcus aureus) [µg/mL]	MIC (Escherichia coli) [µg/mL]	MIC (Bacillus subtilis) [µg/mL]
COc1c(O)cc2c(c1O)Oc1ccc(O)cc1CC2	256 (≈ 933 µM)	> 256	256 (≈ 933 µM)
COc1cc2c(c(OC)c1OC)Oc1ccc(C)cc1CC2	> 256	> 256	> 256
COc1c(O)cc2c(c1O)Oc1ccc(N3CCOCC3)cc1CC2	256 (≈ 746 µM)	> 256	256 (≈ 746 µM)
COc1c(O)cc2c(c1O)Oc1ccc(Nc3ccccc3)cc1CC2	32 (≈ 91.6 µM)	> 256	32 (≈ 91.6 µM)
Cc1ccc2c(c1)CCc1cc(O)c(O)c(O)c1O2	16 (≈ 61.9 µM)	256 (≈ 991 µM)	32 (≈ 124 µM)
CCN(CC)c1ccc2c(c1)CCc1cc(OC)c(OC)c(OC)c1O2	> 256	> 256	> 256
Oc1cc2c(c(O)c1O)Oc1c(Cl)cccc1CC2	32 (≈ 115 µM)	> 256	32 (≈ 115 µM)
COc1ccc2c(c1)CCc1cc(OC)c(OC)c(OC)c1O2	> 256	> 256	> 256
COc1c(O)cc2c(c1O)Oc1ccccc1CC2	256 (≈ 991 µM)	> 256	256 (≈ 991 µM)
COc1cc2c(c(O)c1OC)Oc1ccc(Br)cc1CC2	32 (≈ 91.1 µM)	> 256	32 (≈ 91.1 µM)
COc1cc2c(c(OC)c1OC)Oc1ccccc1CC2	> 256	> 256	> 256
CCN(CC)c1ccc2c(c1)CCc1cc(O)c(OC)c(O)c1O2	64 (≈ 194 µM)	> 256	64 (≈ 194 µM)
COc1cc2c(c(OC)c1OC)Oc1ccc(Br)cc1CC2	> 256	> 256	> 256
COc1cc2c(c(OC)c1OC)Oc1ccc(N)cc1CC2	> 256	> 256	> 256
Oc1cc2c(c(O)c1O)Oc1ccc(Br)cc1CC2	16 (≈ 49.5 µM)	> 256	8 (≈ 24.8 µM)
COc1c(O)cc2c(c1O)Oc1ccc(Br)cc1CC2	16 (≈ 47.5 µM)	> 256	16 (≈ 47.5 µM)
COc1c(O)cc2c(c1O)Oc1ccc(N3CCCCC3)cc1CC2	128 (≈ 375 µM)	> 256	64 (≈ 187 µM)
O=C(N[C@H](CO)[C@H](O)c1ccc([N+](=O)[O-])cc1)C(Cl)Cl [CHLORAMPHENICOL]	8 (≈ 24.8 µM)	8 (≈ 24.8 µM)	4 (≈ 12.4 µM)
